# What was measured:
# [1] = test system: splenic B cells from C57BL/6 mice; test: BCR-mediated calcium flux in B cells; format: cell-based, mouse; conditions: 15 nM, 60 nM and 490 nM idelalisib added simultaneously with anti-Ig heavy and light chain F(ab′)2
# Procedure: (§1) For measurements of intracellular free calcium concentration ([Ca^2+]i), RBC-depleted single-cell suspended splenocytes were simultaneously stained with CD8-PE (BD Biosciences), CD4-APC (BioLegend) or B220-PE and loaded with Indo-1 acetoxymethyl (Molecular Probes), as described previously (Gauld, et al., Nat Immunol 6: 1160-1167). For analysis of ([Ca^2+]i), cells were suspended at 10×10^6 cells/ml in warm IMDM+2% FBS in a 500 ul volume. […] Mean relative ([Ca^2+]i) was monitored over time using an LSR Fortessa X-20 (BD) with analysis using FlowJo software.
# [2] = test system: MD4 B cells; test: MD4 B cell adoptive transfer, response to HEL-SRBC immunization; format: in vivo, mouse
# Procedure: (§2) 2 hours before adoptive transfer, C57BL/6 recipient mice received 200 rads irradiation. […] B cells from donor mice were isolated via depletion of CD43+ cells with anti-CD43-conjugated magnetic beads (MACS anti-mouse CD43; Miltenyi Biotec). Alternatively, CD4+ T cells were isolated via CD4 positive selection (MACS anti-mouse CD4 (L3T4) Miltenyi Biotec). Resultant populations were >97% pure based on flow cytometric analyses. Donor B cells were labeled with either CellTrace Violet (Molecular Probes) or CFSE (Molecular Probes) at 5 μM for 5 minutes at room temperature prior to transfer. Donor CD4 T cells were labeled with CFSE (Molecular Probes) at 5 μM for 5 minutes at room temperature prior to transfer. 1-2×10^6 donor cells in 200 μl PBS were adoptively transferred via IV injection. 24 hours post transfer, tamoxifen was administered to activate Cre. Tamoxifen (Sigma-Aldrich) was dissolved in 100% corn oil (Sigma-Aldrich) at 20 mg/ml. Recipient mice were injected IP with 100 μl (2 mg) on two consecutive days.
# (§3) Diet dose (DD) is calculated by multiplying the single daily dose (SD) by the body weight of a mouse (BW) and dividing that by the daily food intake (FI) [DD=(SD×BW)/FI].
# For VH125.NOD experiments animals are placed on control chow immediately after weaning.
# HEL conjugated to SRBCs was used to produce antigen for experiments with MD4 B cells. SRBCs (Colorado Serum Company) were stored in Alsever's solution at 4° C. SRBCs are washed 3 times in PBS prior to use. 1 ml of 50 mg/ml of the chemical crosslinker N-(3-Dimethylaminopropyl)-N-ethylcarbodiimide hydrochloride (Sigma-Aldrich) was added to 1 ml packed SRBCs and 15 ml of 5 mg/ml HEL (Sigma-Aldrich), mixed and rotated at room temperature for 45 minutes. Mice were immunized IP with 200 μl of a 5% HEL-SRBC in PBS. For NP4Ova-Alum immunizations, 10 mg/ml alum and 5 mg/ml NP4Ova were mixed to a final concentration of 250 μg/ml NP4Ova and 2.5 mg/ml alum and rotated for 3 hours at room temperature. […] Mice were then immunized with NP4Ova-alum IP in 200 μl/mouse, and responses were measured on day 7 and day 14 post-immunization.
# Spleens were mechanically disrupted, single-cell suspensions were generated, and red blood cells were lysed with ammonium chloride TRIS. Cells were resuspended in PBS containing 1% FBS and incubated with indicated antibodies. For analysis of cell surface markers, antibodies against the following molecules were used: B220-PE (BioLegend), B220-BV786 (BD Biosciences), B220-BV510 (BioLegend), CD4-BV711 (BioLegend), CD8-BV421 (BioLegend), CD138-PECy7 (BioLegend), CD69-BV786 (BD Biosciences), CD86-PerCPCy5.5 (BioLegend). After cell surface staining, the cells were fixed and permeabilized with Cytofix/Cytoperm (BD) per manufacturer's instructions and stained with Dylight650-E4 anti-Ars/A1 idiotype (produced and conjugated in our laboratory) OR HEL-650 (produced and conjugated in our laboratory) and Alexa Fluor 488-anti-GFP (rabbit polyclonal; Life Technologies). Events were collected on a CyAn ADP (Dako) and subsequent analysis using FlowJo software (Tree Star).
# For detection of IgM^a anti-Ars antibodies, microtiter plates were coated with 10 μg/ml Ars-BSA16 in PBS and blocked with 2 mg/ml BSA in PBS 0.05% Tween-20. For detection of IgM^a anti-HEL antibodies, microtiter plates were coated with 10 μg/ml HEL in PBS and blocked with 2 mg/ml BSA in PBS 0.05% Tween-20. For detection of total NP-specific IgM and IgG, microtiter plates were coated with 20 μg/ml NP27BSA and blocked with 2 mg/ml BSA in PBS 0.05% Tween-20. For detection of high affinity NP-specific IgM and IgG, microtiter plates were coated with 20 μg/ml NP2BSA and blocked with 2 mg/ml BSA in PBS 0.05% Tween-20. Serial dilutions of mouse serum in PBS were added and incubated overnight at 4° C. Ars/A1-derived IgM^a antibodies and MD4-derived HEL IgM^a antibodies were detected with biotinylated DS.1 anti-IgM^a (BD Pharmingen) in PBS, followed by Streptavidin-HRP (Thermo Fisher Scientific). […]
# [3] = test system: CD4 T cells; test: calcium mobilization of CD4 T cells after TCR aggregation; format: cell-based, mouse; conditions: 15 nM idelalisib, biotin-anti-CD3 and avidin
# Procedure: as §1
# Because a therapeutic effect of the inhibitor on VH125.NOD disease progression and survival was observed, reduction in autoantibody responses in PTEN^−/+×SHIP-1^−/+ cells, yet equivalent autoantibody responses by SHP-1^−/− and MD4 B cells in mice receiving 0.9375 mg/kg idelalisib-containing chow, we chose to focus our analysis on effects of this dose on T cell function. […] To analyze in vivo CD4 T cell responses, OT-II CD4 T cells were adoptively transferred into congenically mismatched recipients and immunized with OVA+P:IC as represented diagrammatically in FIG. 6C. […] The transferred OT-II cells that proliferated most underwent the greatest upregulation of CD44 (FIG. 6D).
# [4] = test system: OT-II CD4 T cells; test: OT-II CD4 T cell adoptive transfer, response to OVA+P:IC immunization; format: in vivo, mouse; conditions: 0.9375 mg/kg chow vs vehicle control, five days post-immunization
# Procedure: as §2, §3
# For VH125.NOD experiments animals are placed on control chow immediately after weaning. […]
# [5] = 0.9375 mg/kg chow vs vehicle control, 5 days post immunization
# [6] = 3.75 mg/kg and 30 mg/kg chow vs vehicle control, 5 days post immunization
structure (smiles),measurement,setting,value
"CC[C@H](Nc1ncnc2nc[nH]c12)c1nc2cccc(F)c2c(=O)n1-c1ccccc1 [idelalisib, 5-fluoro-3-phenyl-2-[(1S)-1-(7H-purin-6-ylamino)propyl]-4(3H)-quinazolinone]",calcium mobilization,[1],suppressed
same,HEL-specific ASCs/spleen,[2]; [5],equivalent
same,IgM anti-HEL antibody response,[2]; [5],equivalent
same,proliferation of recovered MD4 B cells,[2]; 3.75 mg/kg and 30 mg/kg chow,proliferated less than in controls
same,recoverable transferred MD4 B cells in the spleen,[2]; 3.75 mg/kg and 30 mg/kg chow,significant decreases
same,IgM anti-HEL antibody response,[2]; [6],significantly reduced
same,number of ASCs/spleen,[2]; [6],reduced
same,calcium mobilization of CD4 T cells,[3],failed to inhibit
same,proliferation (CFSE) of OT-II T cells,[4],equivalent levels
same,upregulation of the activation marker CD44 on OT-II T cells,[4],equivalent levels
